Earlier results on one substance are cited in US11608326B2, “Synthetic receptors for ionophoric compounds” (Universiteit Gent, priority 2018, dated 2023).

One data set relates to human leukemia cells. The conditions noted are these: 3 μM, overnight incubation.
For data set [1], the system named is human neural (Paju) cells.

For the substance beauvericin, the “drop of survival rate” value in the data set with human leukemia cells is recorded as 80%. The “concentration sufficient to cause depolarization” value in data set [1] was “low μM concentrations”.
